Experimental data as given in PMC5427923, “A novel CCR2 antagonist inhibits atherogenesis in apoE deficient mice by achieving high receptor occupancy” (Scientific Reports, 2017).

Columns and labels:
[1] = 15a plasma levels by LC-MS after a single intraperitoneal dose; format: in vivo; conditions: apoE−/−, mouse
Experimental: To measure plasma concentrations of 15a over time, Western type diet fed mice were injected with 5 mg/kg 15a, after which blood samples were taken at fixed time points (1, 2, 6 and 24 hours after injection). Blood samples were processed as described below under “Measurement of 15a plasma levels”. The final dose of 5 mg/kg/day was based on a pilot study in which two different doses (1.5 and 5 mg/kg/day) were tested using leucocyte migration towards the peritoneal cavity as a read-out. […] In addition, the dose of 5 mg/kg was also based on a previous study with TAK-779[38], in which a dose of 5 mg/kg was used.
Blood plasma from mice was analyzed by LC-MS to determine 15a plasma levels. 20 μL of internal standard (compound 15b, a diastereomer of 15a[24]) and 20 μL of solvent C (20% (v/v) Acetonitrile and 0.1% (v/v) TFA in LC-MS water) were first mixed with 20 µL of plasma. A calibration curve from 2 to 200 ng/ml of 15a was prepared using solvent C. Calibration samples were prepared as normal samples using blanc plasma and calibration solution instead of solvent C. Aliquots of 40 µL of 1% TFA were added to the samples and mixed well. After addition of 900 µL of ethyl acetate, mixing was performed for 5 minutes at a titramax plate shaker (Heidolph, Swabach, Germany). Samples were then centrifuged at 15,000 × g during 10 minutes and 800 µL of the supernatant was evaporated in a vacuum centrifuge (Labconco, Kansas City, Missouri). The sample was reconstituted by mixing with 10 µL of acetonitrile, followed by addition of 40 µL solvent C. After a second centrifugation at 15,000 × g for 10 minutes, 35 µL of supernatant were transferred to LC vials and inserted into the LC-MS system consisting of a Nexera X2 UHPLC system with two UHPLC pumps (Shimadzu, ’s Hertogenbosch, The Netherlands) connected to a TSQ Quantum Ultra (Thermo Fisher Scientific, Breda, The Netherlands). Separation of 15a was accomplished in a Gemini 3 µm C18 reversed phase HPLC column (50 × 4.6 mm) (Phenomenex, Amstelveen, The Netherlands) using an injection volume of 10 µL and a flow rate of 0.6 ml/min at 40 °C. After elution of 15a with a 9:11 (v/v) ratio of acetonitrile in water with 0.1% TFA, the column was flushed with a gradient up to 90% acetonitrile with 0.1% TFA. The column was re-equilibrated with a 9:11 (v/v) ratio of acetonitrile in water with 0.1% TFA before the next injection. […] The collision energy used was 26 V at a skimmer offset of 16 V, the scan peak width was 0.5 m/z, while the scan time was 0.3 seconds. Sheath gas and auxiliary gas pressure (Nitrogen) were set to 60 and 5 respectively (arbitrary units), and the collision gas Argon was set at 1.0 atm.
To determine the maximal value of k off that would prolong the receptor occupancy even further, we used equation (2)[28], in which BF represents the percentage of target occupancy divided by 100 and t 1/2el represents the plasma elimination half-life (0.693/k el). In this case we set BF to 0.90, as 90% represents the minimum value of target occupancy to achieve efficacy. To obtain the elimination rate constant of compound 15a, a linear regression analysis of the natural logarithm of the concentrations versus time was performed, and the slope coefficient was used as the elimination rate constant k el.2 koff<0.693⋅(1−BF)/t1/2el

apoE−/− mice = assay: Atherosclerotic lesion development in Western-type diet fed apoE−/− mice (carotid collar, aortic root); format: in vivo, mouse
Text: Male apoE^−/− mice (10–12 weeks old), obtained from the local animal breeding facility (Gorlaeus Laboratories, Leiden, The Netherlands), were fed a Western type diet, containing 0.25% cholesterol and 15% cocoabutter (SDS, Sussex, UK).
To determine the effect of the CCR2 antagonist on atherosclerotic lesion development, mice were fed a Western type diet, containing 0.25% cholesterol and 15% cocoabutter (SDS, Sussex, UK) throughout the experiment starting two week before surgery. Carotid artery plaque formation was induced by perivascular collar placement as described previously[46] and from the time of surgery, the mice received daily intraperitoneal injections containing 15a (5 mg/kg/day) or vehicle control (n = 9–10 per group). During the experiment, total body weight and weight gain were measured. Serum total cholesterol levels were determined using an enzymatic colorimetric assay according to manufacturer’s protocol (Roche Diagnostics). Precipath (standardized serum; Boehringer Mannheim, Germany) was used as an internal standard. Plasma cytokine levels were measured by ELISA according to manufacturer’s protocol (BD Biosciences). Blood was collected weekly via tail cut. Total cell count and cellular differentiation patterns in blood were analyzed using an automated XT-2000iV veterinary hematology analyzer (Sysmex Europe GMBH, Norderstedt, Germany). After erythrocyte lysis, blood leukocyte suspensions were stained for surface markers, after which their expression was determined by FACS analysis (FACS Canto, BD Biosciences). After 4 weeks of lesion development, the animals were anaesthetized and blood was collected. After in situ perfusion through the left cardiac chamber, the carotid arteries and hearts were harvested.
Carotid artery cryosections of 5 µm thick were prepared, which were stained with hematoxylin-eosin to determine plaque size and necrotic core size. Morphometric analysis was performed on sections throughout the atherosclerotic lesion (100 µm apart) and at the site of maximal stenosis using Leica Qwin image analysis software. The relative necrotic area was defined as the a-cellular, debris-rich plaque area as percentage of total plaque area, and also quantified using Leica QWin software.
The hearts were dissected just below the atria and sectioned perpendicular to the axis of the aorta, starting within the heart and working in the direction of the aortic arch. Once the aortic root was identified by the appearance of aortic valve leaflets, 10 µm sections were collected. Mean lesion area (in µm^2) of the aortic root was calculated from six Oil-Red-O stained sections in distal direction starting at the point where all three aortic valve leaflets first appeared.
Macrophage content of the lesions in carotid arteries and aortic roots was stained using a rat monoclonal MOMA2 antibody (1:1000, Serotec, Kidlington, Oxford, UK). Macrophage positive areas were analyzed using computer-assisted colour-gated analysis, and related to the total intimal surface area (Leica QWin). Liver cryosections of 10 µm thick were prepared and subsequently stained with hematoxylin-eosin to analyze liver morphology, which was assessed using a Leica DMRE microscope (Leica Ltd., Cambridge, England).

CC(C)[C@]1(C(=O)N2CCc3ccc(C(F)(F)F)cc3C2)CC[C@@H](N[C@@H]2CCc3cc(Br)ccc32)C1 [15a, ((1S,3R)-3-(((R)-5-bromo-2,3-dihydro-1H-inden-1-yl)amino)-1-isopropylcyclopentyl)(7-(trifluoromethyl)-3,4-dihydroisoquinolin-2(1H)-yl)methanone]
k el ([1]; intraperitoneal, 5 mg/kg, slope of the linear regression of the pharmacokinetic data, read-out: k el (elimination rate constant) (converted)): 1.8e-05 s⁻¹
concentration at 1 h ([1]; ip, single intraperitoneal dose of 5 mg/kg, mice, range of individual mice, read-out: plasma levels 1 h after administration): 12 to 1460 ng/mL
concentration at 2 h ([1]; ip, single intraperitoneal dose of 5 mg/kg, mice, range of individual mice, read-out: plasma levels 2 h after dosing): 613 to 1050 ng/mL
concentration at 6 h ([1]; ip, single intraperitoneal dose of 5 mg/kg, mice, range of individual mice, read-out: plasma levels 6 h after administration): 182 to 1020 ng/mL
concentration at 24 h ([1]; ip, single intraperitoneal dose of 5 mg/kg, mice, range of individual mice, read-out: plasma levels 24 h after administration): 32 to 331 ng/mL
half-life ([1]; ip, single intraperitoneal dose of 5 mg/kg, mice, read-out: elimination half-life (converted)): 10.7 h
atherosclerotic plaque size in the carotid artery at the site of maximal stenosis (apoE−/− mice; 5 mg/kg/day i.p., 4 weeks, controls 64.4 ± 11.8): 17.6 ± 4.1 *10^3 µm^2
relative necrotic area (apoE−/− mice; carotid artery plaques, controls 35.3 ± 8.2%): 7.6 ± 4.5%
plaque volume throughout the carotid arteries (apoE−/− mice; controls 1.75 ± 0.33): 0.46 ± 0.13 *10^7 µm^3
aortic root plaque volume (apoE−/− mice; controls 11.8 ± 1.2): 7.4 ± 0.7 *10^7 µm^3
macrophage positive area of the carotid artery plaques (MOMA2) (apoE−/− mice; controls 22.3 ± 4.1): 6.2 ± 2.5 *10^3 µm^2
relative macrophage content (corrected for lesion size), carotid artery (apoE−/− mice; controls 46 ± 4%): 25 ± 8%
macrophage positive area, aortic root (apoE−/− mice; controls 92.0 ± 15.6): 37.2 ± 8.7 *10^3 µm^2
aortic root average plaque size (apoE−/− mice; controls 215.9 ± 24.6): 157.0 ± 15.7 *10^3 µm^2
reduction in carotid artery lesion size (apoE−/− mice; mouse, in vivo): more than 70%
change in carotid artery plaque size versus control (apoE−/− mice; site of maximal stenosis): −73%
